# Results from patent US12144814B2, “Compositions containing paraxanthine and beta-hydroxybutyrate or precursor for increasing neurological and physiological performance” (priority 2023, dated 2024).
# Entries after “also recorded” stand apart in the source; their conditions may differ.
# Tests used:
# healthy young adults [1] = assay: Go/No Go Attention and Inhibitory Control Test; assay type: in vivo; conditions: 200 mg paraxanthine; 5 g BHB; 200 mg paraxanthine and 5 g BHB; baseline and 1-6 hours after supplementation; FIG. 5
# Excerpt: Attention and inhibitory control can be measured using a Go/No Go Test, which is used to measure a participant's capacity for sustained attention and response control. The Go/No Go Test is routinely used in the field, and will be familiar to those of skill in the art. In the Go/No Go Test, participants watch a 2×2 array of squares, and then there is a successive presentation of letters (e.g., either P or R) and the participant responds to a target letter by pressing the corresponding button on a keyboard. The single letter (P or R) is presented in one of the 4 squares for 500 milliseconds, with 1500 milliseconds between subsequent stimuli. For the P-Go condition, participants are asked to press the P key in response to the letter P, and abstain from responding to the letter R. For the R-reversal condition, the participants are asked to respond to the letter R, and abstain when seeing the letter P. Mean response time, as well as percentage of correct answers are recorded. When running each such tests, subjects are given either paraxanthine+BHB, paraxanthine alone, BHB alone, or a placebo. The dosage amounts are 200 mg paraxanthine and 5 g of BHB, 200 mg of paraxanthine alone, 5 g of BHB alone, or a placebo. The testing is conducted under double blind, placebo controlled conditions. […]
# healthy young adults [2] = assay: Vigilance Task Test; assay type: in vivo; conditions: 200 mg paraxanthine; 5 g BHB; 200 mg paraxanthine and 5 g BHB; baseline and 1-6 hours after supplementation; FIG. 6
# Excerpt: The Vigilance Task Test is another test routinely used in the field, and is used to evaluate a participants ability to sustain attention. The Vigilance Task Test is a sustained attention, reaction timed task test that measures the speed with which participants respond to a visual stimulus. The subjects respond to visual stimuli (e.g., a red dot) by pressing a key as soon as it appears on the computer screen. The light turns on at random, e.g., roughly every couple of seconds or so during the test. The speed of response is measured. Due to the random nature of the test, there is no learning effect. Mean response time is recorded. When running each such tests, subjects are given either paraxanthine+BHB, paraxanthine alone, BHB alone, or a placebo. The dosage amounts are 200 mg paraxanthine and 5 g of BHB, 200 mg of paraxanthine alone, 5 g of BHB alone, or a placebo. The testing is conducted under double blind, placebo controlled conditions. The subjects include 13 healthy young adults (10 male, 3 female), aged 24±5 years; height 170.0±11.8 cm; weight 72.9±19.3 kg.
# healthy young adults [3] = assay: Sternberg Test; assay type: in vivo; conditions: 200 mg paraxanthine; 5 g BHB; 200 mg paraxanthine and 5 g BHB; letter length 2, 4, 6; FIGS. 9-11
# Excerpt: The Sternberg Test is a test routinely used in the field to evaluate working memory, and ability to make use of short-term memory. A lower reaction time means that participants can access their working memory faster. The Sternberg Task Test is a widely used paradigm for studying short term/working memory involving cognitive control processes. Participants are asked to remember a short series of letters or other characters and then the participants has to respond if the series of letters or characters is present in a larger series of letters or characters. Reaction time is measured when the remembered short series is both present or absent. Mean response time is recorded. When running each such tests, subjects are given either paraxanthine+BHB, paraxanthine alone, BHB alone, or a placebo. The dosage amounts are 200 mg paraxanthine and 5 g of BHB, 200 mg of paraxanthine alone, 5 g of BHB alone, or a placebo. The testing is conducted under double blind, placebo controlled conditions. The subjects include 13 healthy young adults (10 male, 3 female), aged 24±5 years; height 170.0±11.8 cm; weight 72.9±19.3 kg.
# [4] = 28-day sports nutrition clinical study; assay type: in vivo; conditions: paraxanthine 100 mg, paraxanthine 100 mg with BHB 5 g, 28 days, exercise 5 days per week
# Excerpt: Participants exercise 5 days per week, of the 4-week study. […] Increases in nitric oxide levels, as well as improved blood lipids scores (e.g., TG, TC, LDL, HDL) are also observed.
# [5] = Age-related cognitive decline study; assay type: in vivo
# mice [6] = assay: Forced Swim Test on mice; assay type: in vivo; conditions: PX 100 mg
# mice [7] = assay: Cook's Pole Climbing Test on mice; assay type: in vivo; conditions: PX 100 mg
# [8] = Clinical Stroop Test study; assay type: in vivo; conditions: paraxanthine 200 mg; BHB 5 g; paraxanthine 200 mg with BHB 5 g; 6-week period; FIGS. 15A-15C
# Excerpt: The Stroop effect refers to the delay in reaction time between congruent and incongruent stimuli. […] When paired with paraxanthine, the combination provides a synergistic improvement in mental acuity.
# adenosine A2a receptors = adenosine A2a receptors (Homo sapiens, UniProt P29274); conditions: compared with caffeine; cited from earlier work
# [9] = molecular target: cGMP-preferring phosphodiesterase (PDE9) (Homo sapiens, UniProt O76083); conditions: cited from earlier work
# [10] = in vivo; cited from earlier work
# [11] = in vivo; cited from earlier work; remark: listed apart in the source
# dopaminergic neurons = conditions: cited from earlier work
# [12] = metabolite of caffeine, cited from earlier work
# [13] = elevated doses; cited from earlier work
# cGMP-preferring phosphodiesterase (PDE9), sequence (O76083 whole entry): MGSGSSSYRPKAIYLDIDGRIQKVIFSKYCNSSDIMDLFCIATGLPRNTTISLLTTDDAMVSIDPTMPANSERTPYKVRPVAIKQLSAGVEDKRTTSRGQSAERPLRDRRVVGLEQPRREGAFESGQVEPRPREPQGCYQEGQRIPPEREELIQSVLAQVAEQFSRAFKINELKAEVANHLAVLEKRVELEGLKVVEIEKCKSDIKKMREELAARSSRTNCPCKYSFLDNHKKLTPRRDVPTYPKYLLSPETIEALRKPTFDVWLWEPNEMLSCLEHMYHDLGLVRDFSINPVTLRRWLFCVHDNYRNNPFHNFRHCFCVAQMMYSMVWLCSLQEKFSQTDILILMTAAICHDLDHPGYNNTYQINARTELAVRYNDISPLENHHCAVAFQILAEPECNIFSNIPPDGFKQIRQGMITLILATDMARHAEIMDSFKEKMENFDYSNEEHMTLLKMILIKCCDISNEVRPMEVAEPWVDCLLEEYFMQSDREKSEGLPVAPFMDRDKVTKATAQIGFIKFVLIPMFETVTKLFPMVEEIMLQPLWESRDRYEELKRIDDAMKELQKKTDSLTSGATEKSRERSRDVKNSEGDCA
# adenosine A2a receptors, sequence (P29274 whole entry): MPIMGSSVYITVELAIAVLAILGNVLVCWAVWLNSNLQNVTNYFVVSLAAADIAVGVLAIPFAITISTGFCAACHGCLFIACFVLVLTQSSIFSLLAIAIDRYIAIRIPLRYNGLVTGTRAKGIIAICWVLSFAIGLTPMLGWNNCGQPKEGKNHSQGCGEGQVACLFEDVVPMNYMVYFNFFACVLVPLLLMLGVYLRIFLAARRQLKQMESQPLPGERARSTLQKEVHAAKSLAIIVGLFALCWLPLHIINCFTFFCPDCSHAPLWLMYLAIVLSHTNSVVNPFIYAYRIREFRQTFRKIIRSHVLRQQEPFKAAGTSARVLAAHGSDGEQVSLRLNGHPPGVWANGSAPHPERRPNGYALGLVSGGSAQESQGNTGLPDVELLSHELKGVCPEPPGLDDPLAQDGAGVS
structure (smiles),measurement,setting,value
"Cn1c(=O)[nH]c2ncn(C)c2c1=O [paraxanthine, 1,7-dimethylxanthine]",Go/No Go Test average response time,healthy young adults [1],faster response times
same,Vigilance Task Test average response time,healthy young adults [2],faster response times
same,Sternberg Test mean response time,healthy young adults [3],decreased mean response time
same,endurance (treadmill distance),[4]; FIG. 14A,some improvement
same,muscle mass,[4]; FIG. 14B,some improvement
same,grip strength,[4]; FIG. 14C,some improvement
same,Acetylcholine,[5]; PX 25 mg,61.04 U/mL
same,BDNF,[5]; PX 25 mg,828.05 pg/mL
same,Catalase,[5]; PX 25 mg,30.24 U/mL
same,Dopamine,[5]; PX 25 mg,493.65 ng/L
same,Escape Latency,[5]; PX 25 mg,49.9 s
same,Glutathione,[5]; PX 25 mg,24.04 µg/mL
same,Acetylcholine,[5]; PX 100 mg,69.27 U/mL
same,BDNF,[5]; PX 100 mg,939.15 pg/mL
same,Catalase,[5]; PX 100 mg,38.91 U/mL
same,Dopamine,[5]; PX 100 mg,596.32 ng/L
same,Escape Latency,[5]; PX 100 mg,21.31 s
same,Glutathione,[5]; PX 100 mg,34.41 µg/mL
same,Duration of Immobility,mice [6],5.85 min
same,Duration of mobility/active swimming,mice [6],24.15 min
same,No. of Climbing,mice [7],2.75
same,Stroop test number of correct answers,[8],some improvement
same,Stroop test reaction speed,[8],some improvement
same,binding potency for adenosine A2a receptors,adenosine A2a receptors,higher binding potencies
same,inhibition of PDE9,[9],inhibits PDE9; also recorded: selective inhibitor
same,locomotor activation effects,[10],stronger locomotor activation effects than caffeine
same,wake promoting activity,[11],stronger wake promoting activity as compared to caffeine
same,protection against neurodegeneration and the loss of synaptic function,dopaminergic neurons,strongly protective
same,share of the methylxanthine metabolic by-products,[12]; FIG. 2,about 84%
same,share of caffeine ingested,[12],70-72%
same,hypothermia and reduced locomotor activity,[13],no such problems are observed
